What was measured:
IFN gamma = IFN gamma secretion assay in human PBMCs (PHA-M-stimulated, ELISA); type: cell-based; settings: PBMC, PHA-M 10 ug/mL 40 hr, read-out: IFNγ inhibitory activity IC50
Description: (§1) Fetal bovine serum (FBS) was obtained from ThermoFisher (Cat #16000044). • Other reagents: 96well TC plates were obtained from ThermoFisher (Cat #07-2000-90).
IFN-gamma was assessed using a standard ELISA protocol. Cryopreserved PBMCs were thawed in a water bath and transferred to 50 mL polypropylene tubes. The cells were washed two times with 25 mL of RPMI medium supplemented with 5% of regular FBS and re-suspended at a density of 1.5^10^6 cells/mL. The cells were plated into 96 well TC late (100 uL/well). Serially diluted compound was added to the cells in duplicate wells for each concentration. Control wells received DMSO only (0.3% final). The cells were pre-incubated with compound for 2 hr. After pre-incubation, the cells were stimulated by PHA-M (10 ug/mL) for 40 hr. Control samples with and without PHA-M in the absence of compound were assembled in each test plate. IFNg was detected in media supernatants by using a sandwich anti-IFNg ELISA kit (BD Biosciences) according to protocol provided by the manufacturer. ELISA readout (optical density at 450 nm) is commensurable with the amount of IFNg produced by the cells. Assay window was determined in each experiment by comparing average OD450 values in stimulated and un-stimulated samples in the absence of compound. ELISA calibration was performed in each detection plate using serially diluted recombinant human IFN gamma, to ensure that OD450 values for all test samples were within linear range of detection.%-Inhibition by compound was calculated using following equation:
[formula] • where OD450100% is optical density in control samples stimulated with PHA-M without compound, OD4500% is optical density in unstimulated control samples, and OD450compound is optical density in a sample stimulated with PHA-M in the presence of compound.
(§2) The calculated %-Inh values were plotted against compound concentration. To determine IC50 values, dose-response curves were fitted by a 4-parameter sigmoid inhibition model using XLFit® software (IDBS).

TNFα = test: TNFa secretion assay in human PBMCs (LPS-stimulated, ELISA); type: cell-based; settings: PBMC, LPS 100 ng/mL 6 hr, read-out: TNF inhibitory activity IC50
Description: Fetal bovine serum (FBS) was obtained from ThermoFisher (Cat #16000044). • Other reagents: 96well TC plates were obtained from ThermoFisher (Cat #07-2000-90). LPS was obtained from Sigma (Cat #L3024).
TNF-alpha was assessed using a standard ELISA protocol. Cryopreserved PBMCs were thawed in a water bath and transferred to 50 mL polypropylene tubes. The cells were washed two times with 25 mL of RPMI medium supplemented with 5% of heat-inactivated FBS and re-suspended at a density of 4.5^10^6 cells/mL. The cells were plated into 96 well TC late (100 uL/well). Serially diluted compound was added to the cells in duplicate wells for each concentration. Control wells received DMSO only (0.3% final). The cells were pre-incubated with compound for 1 hr. After pre-incubation, the cells were stimulated by LPS (100 ng/mL) for 6 hr. Control samples with and without LPS in the absence of compound were assembled in each test plate. TNFa was detected in media supernatants by using a sandwich anti-TNFα ELISA kit (BD Biosciences) according to protocol provided by the manufacturer. ELISA readout (optical density at 450 nm) is commensurable with the amount of TNFα produced by the cells. Assay window was determined in each experiment by comparing average OD450 values in stimulated and un-stimulated samples in the absence of compound. ELISA calibration was performed in each detection plate using serially diluted recombinant human TNFα, to ensure that OD450 values for all test samples were within linear range of detection.%-Inhibition by compound was calculated using following equation:
[formula] • where OD450100% is optical density in control samples stimulated with LPS without compound, OD4500% is optical density in unstimulated control samples, and OD450compound is optical density in a sample stimulated with LPS in the presence of compound.
as §2

IL-10 = IL-10 secretion assay in human PBMCs (PHA-M-stimulated, ELISA); type: cell-based; settings: PBMC, PHA-M 10 ug/mL 40 hr, read-out: IL10 inhibitory activity IC50
Description: as §1
Cryopreserved PBMCs were thawed in a water bath and transferred to 50 mL polypropylene tubes. The cells were washed two times with 25 mL of RPMI medium supplemented with 5% of regular FBS and re-suspended at a density of 1.5×10^6 cells/mL. The cells were plated into 96 well TC plate (100 uL/well). Serially diluted compound was added to the cells in duplicate wells for each concentration. Control wells received DMSO only (0.3% final). The cells were pre-incubated with compound for 2 hr. After pre-incubation, the cells were stimulated by PHA-M (10 ug/mL) for 40 hr. Control samples with and without PHA-M in the absence of compound were assembled in each test plate. IL-10 was detected in media supernatants by using a sandwich anti-IL10 ELISA kit (BD Biosciences) according to protocol provided by the manufacturer. ELISA readout (optical density at 450 nm) is commensurable with the amount of IL-10 produced by the cells. Assay window was determined in each experiment by comparing average OD450 values in stimulated and un-stimulated samples in the absence of compound. ELISA calibration was performed in each detection plate using serially diluted recombinant human IL-10 standard to ensure that OD450 values for all test samples were within linear range of detection.%-Inhibition by compound was calculated using following equation:
[formula] • where OD450100% is optical density in control samples stimulated with PHA-M without compound, OD4500% is optical density in unstimulated control samples, and OD450compound is optical density in a sample stimulated with PHA-M in the presence of compound. The calculated %-Inh values were plotted against compound concentration. To determine IC50 values, dose-response curves were fitted by a 4-parameter sigmoid inhibition model using XLFit® software (IDBS).

IL-1β = test: Inhibitory activity on IL-1β

Row | SMILES | IC50 (IFN gamma) | IC50 (TNFα) | IC50 (IL-10) | IC50 (IL-1β)
1 | CCCCCc1cc(O)c2c(c1O)OC(C)(CCC=C(C)C)C=C2 (centres unmarked) [Formula XXII] | 1.97 µM | 9.2 µM | 0.92 µM | 3.3 µM
2 | CCCCCC1=CC(=O)C2=C(O[C@](C)(CCC=C(C)C)C=C2)C1=O [Formula XXVI] | 0.31 µM | 0.62 µM | 0.38 µM | 0.54 µM
3 | CCCCCC1=C(NCC)C(=O)C2=C(OC(C)(CCC=C(C)C)C=C2)C1=O (centres unmarked) [Formula XXVIII] | > 10 µM | > 10 µM | > 10 µM | > 10 µM
4 | CC(C)=CCCC1(C)C=CC2=C(O1)C(=O)c1ccccc1C2=O (centres unmarked) [Formula XXVII] | > 10 µM | > 10 µM | > 10 µM | > 10 µM
5 | CCCCCc1cc(OC)c2c(c1OC)OC(C)(CCC=C(C)C)C=C2 (centres unmarked) [Formula XXIV] | 4.2 µM | 10.6 µM | > 10 µM | > 10 µM
6 | CCCCCC1=CC(=O)C2=C(OC(C)(CCC=C(C)C)C=C2)C1=O (centres unmarked) [Formula II] | 0.39 µM | 0.93 µM | 0.78 µM | 1.72 µM
7 | CCCCCc1cc(OC(C)=O)c2c(c1OC(C)=O)OC(C)(CCC=C(C)C)C=C2 (centres unmarked) [Formula XXIII] | 0.48 µM | 9.95 µM | 0.92 µM | 0.97 µM
8 | CCCCCC1=C(NCCC)C(=O)C2=C(OC(C)(CCC=C(C)C)C=C2)C1=O (centres unmarked) [Formula XXV] | > 10 µM | 9 µM | > 10 µM | > 10 µM
